Where a chain is given by its changes, count along the chain named.
Experiments:
Format in all cases: cell-based
[1] = molecular target: T1, Neuromedin-U receptor 2 (NMUR2, NP_064552.3) (Homo sapiens, UniProt Q9GZQ4); experiment: Confocal calcium imaging of Ghrelin receptor family, overexpressed in HEK293T cells; conditions: 200 μM
T1 construct: mCherry; host or cells: HEK293T, transient
Method: (§1) According to the transient transfection method of Example 5.2, the 6 receptors of Ghrelin family except GPR39 were overexpressed in HEK293T cells respectively (the expression vectors for these 6 receptors came from the research group of Rao Yi, Peking University), and calcium dye was incubated. An inverted laser confocal microscope (leica Co.) was used to detect the activation of the 6 receptors of Ghrelin family by LCAS. The specific operations were as below: placing the cells to be detected on the microscope stage, detecting the fluorescence signal value of the calcium dye Fluo8 with the 488 nm channel, and detecting the fluorescence signal value of mCherry with the 543 nm channel. All receptors fused to express the red fluorescence protein mCherry, and the expression of receptors was determined by detecting the red fluorescence emitted from mCherry.

[2] = molecular target: T2, Motilin receptor (MLNR, NP_001498.1) (Homo sapiens, UniProt O43193); experiment: as above; conditions: 200 μM
T2 construct: mCherry; host or cells: HEK293T, transient
T2 sequence (O43193 whole entry): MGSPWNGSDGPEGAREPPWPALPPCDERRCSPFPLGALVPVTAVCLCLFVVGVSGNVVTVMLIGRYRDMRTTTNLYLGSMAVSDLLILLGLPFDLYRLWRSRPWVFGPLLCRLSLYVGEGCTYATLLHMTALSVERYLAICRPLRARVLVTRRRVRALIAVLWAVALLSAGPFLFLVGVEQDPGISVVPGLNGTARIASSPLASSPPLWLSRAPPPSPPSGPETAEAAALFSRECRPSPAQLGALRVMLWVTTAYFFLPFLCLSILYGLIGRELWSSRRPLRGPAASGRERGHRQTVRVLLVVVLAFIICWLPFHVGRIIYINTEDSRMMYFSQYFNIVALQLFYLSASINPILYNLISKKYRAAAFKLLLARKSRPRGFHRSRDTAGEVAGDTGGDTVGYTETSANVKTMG
Method: as §1

[3] = molecular target: T3, GPR39 mutant E90A (Mus musculus, UniProt Q5U431, E90A); experiment: Calcium imaging of GPR39 activation site mutant, transiently transfected cells; conditions: FIG. 7
T3 construct: 3HA (N); P2A-mCherry (C); expressed in transfected cells; host or cells: HEK293T, transient (Lipofectamine 3000)
T3 sequence (Q5U431 1-456 E90A): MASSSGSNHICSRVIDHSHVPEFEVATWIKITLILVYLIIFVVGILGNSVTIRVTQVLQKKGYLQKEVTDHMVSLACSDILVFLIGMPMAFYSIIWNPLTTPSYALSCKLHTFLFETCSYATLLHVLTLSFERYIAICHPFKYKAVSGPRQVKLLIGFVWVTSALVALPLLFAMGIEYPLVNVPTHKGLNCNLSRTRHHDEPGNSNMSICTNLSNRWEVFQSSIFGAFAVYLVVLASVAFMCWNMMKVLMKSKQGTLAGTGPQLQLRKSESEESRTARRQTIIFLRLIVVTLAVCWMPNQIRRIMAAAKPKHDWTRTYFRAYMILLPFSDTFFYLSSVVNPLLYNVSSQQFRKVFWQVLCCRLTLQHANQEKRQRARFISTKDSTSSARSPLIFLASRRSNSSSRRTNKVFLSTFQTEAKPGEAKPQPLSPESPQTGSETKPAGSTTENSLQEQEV
Source text: (§2) GPR39 mutants E90A, F115A, E116A and D330A were firstly constructed according to the method of Example 5.

[4] = molecular target: T4, GPR39 mutant F115A (Mus musculus, UniProt Q5U431, F115A); experiment: as above; conditions: FIG. 7
T4 construct: 3HA (N); P2A-mCherry (C); expressed in transfected cells; host or cells: HEK293T, transient (Lipofectamine 3000)
T4 sequence (Q5U431 1-456 F115A): T3 sequence (Q5U431 1-456 E90A) with A90E, F115A
Source text: as §2

[5] = molecular target: T5, GPR39 mutant D330A (Mus musculus, UniProt Q5U431, D330A); experiment: as above; conditions: FIG. 7
T5 construct: 3HA (N); P2A-mCherry (C); expressed in transfected cells; host or cells: HEK293T, transient (Lipofectamine 3000)
T5 sequence (Q5U431 1-456 D330A): T3 sequence (Q5U431 1-456 E90A) with A90E, D330A
Source text: as §2

[6] = molecular target: T6, GPR39 mutant E116A (Mus musculus, UniProt Q5U431, E116A); experiment: as above; conditions: FIG. 7
T6 construct: 3HA (N); P2A-mCherry (C); expressed in transfected cells; host or cells: HEK293T, transient (Lipofectamine 3000)
T6 sequence (Q5U431 1-456 E116A): T3 sequence (Q5U431 1-456 E90A) with A90E, E116A
Source text: as §2

T1 sequence (Q9GZQ4 whole entry): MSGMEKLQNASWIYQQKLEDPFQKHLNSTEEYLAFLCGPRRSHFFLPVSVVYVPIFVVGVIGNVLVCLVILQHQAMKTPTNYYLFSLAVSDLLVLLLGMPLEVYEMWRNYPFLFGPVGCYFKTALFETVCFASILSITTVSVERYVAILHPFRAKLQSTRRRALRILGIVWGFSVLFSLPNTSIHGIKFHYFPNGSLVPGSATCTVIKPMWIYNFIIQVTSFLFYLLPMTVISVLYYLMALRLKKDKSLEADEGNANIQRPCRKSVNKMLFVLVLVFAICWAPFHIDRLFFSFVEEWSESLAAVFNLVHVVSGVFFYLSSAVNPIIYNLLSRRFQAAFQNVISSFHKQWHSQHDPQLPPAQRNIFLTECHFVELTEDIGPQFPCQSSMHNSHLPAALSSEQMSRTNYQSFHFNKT

For `C[C@H](CCC(=O)O)[C@H]1CC[C@H]2[C@@H]3CC[C@@H]4C[C@H](OS(=O)(=O)O)CC[C@]4(C)[C@H]3CC[C@]12C` [LCAS], the “activation of NMUR2 (calcium imaging)” value [1] was “cannot be activated”, the “activation of MLNR (calcium imaging)” value [2] was “cannot be activated” and the “activation of mutant E90A (calcium imaging)” value [3] was “activated”. For the same compound, the “activation of mutant F115A (calcium imaging)” value [4] was “activated”, the “activation of mutant D330A (calcium imaging)” value [5] was “activated” and the “activation of mutant E116A (calcium imaging)” value [6] was “activated”.

Source: patent US12569502B2, “Use of bile acids and derivatives thereof in preparation of GPR39 agonist” (PEKING UNIVERSITY, priority 2019, dated 2026)
